ChEMBL document CHEMBL1201862, “PubChem BioAssay data set” (2004)
Calls of active or inactive are those of the source.

Tests used:
[1] = target: Disintegrin and metalloproteinase domain-containing protein 17 (Homo sapiens, UniProt P78536); experiment: exosite inhibitors of ADAM17, dose response, biochemical (AID 743260)
[2] = ADAM10 protease inhibitors, dose response, selectivity assay for ADAM17 exosite inhibitor project, biochemical, FRET peptide substrate, recombinant human ADAM10 (AID 743259);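 also: ADAM10 enzyme cleaving a FRET peptide substrate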
[3] = A549 cell cytotoxicity, dose response, cytotoxicity control, plate reader, cherry-pick, antagonist series (AID 743412); type: functional, cell-based
[4] = HepG2 cell cytotoxicity, dose response, cytotoxicity control, plate reader, cherry-pick, antagonist series (AID 743416); type: functional, cell-based
[5] = LGR2 antagonists, dose response, cell-based, HEK293, CRE-luciferase reporter, cherry pick, set 2 (AID 743343); type: functional;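 also: transfected cells were stimulated with diluted bursicon conditioned medium after compound addition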
[6] = MC4R antagonists, dose response, counter-screen for LGR2 antagonist project, cell-based, plate reader, cherry pick (AID 743444); type: functional;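 also: transfected HEK 293 cells stimulated with alpha-MSH peptide; potency of inhibitors of the alpha-MSH evoked signal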
[7] = target: T1, Oxysterols receptor LXR-beta (Homo sapiens, UniProt P55055); type: functional, cell-based
T1 sequence (P55055 whole entry): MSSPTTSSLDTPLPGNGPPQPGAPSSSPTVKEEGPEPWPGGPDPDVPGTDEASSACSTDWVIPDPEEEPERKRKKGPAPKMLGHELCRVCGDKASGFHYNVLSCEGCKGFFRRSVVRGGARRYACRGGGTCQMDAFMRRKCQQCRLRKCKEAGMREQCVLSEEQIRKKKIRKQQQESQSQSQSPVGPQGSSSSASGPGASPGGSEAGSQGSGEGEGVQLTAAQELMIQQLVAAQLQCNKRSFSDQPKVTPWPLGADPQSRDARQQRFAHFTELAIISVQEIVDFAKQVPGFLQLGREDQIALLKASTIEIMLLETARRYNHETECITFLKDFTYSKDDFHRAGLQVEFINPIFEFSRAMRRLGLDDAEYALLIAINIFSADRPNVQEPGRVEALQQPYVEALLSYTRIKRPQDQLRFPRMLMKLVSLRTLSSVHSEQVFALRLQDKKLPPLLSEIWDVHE

cells [8] = experiment: cells
cells [9] = type: functional, cell-based
cells [10] = type: functional, cell-based; remark: listed apart in the source
[11] = target: T1, Oxysterols receptor LXR-beta; type: functional, cell-based; remark: listed apart in the source
[12] = target: Endoplasmic reticulum aminopeptidase 1 (Homo sapiens, UniProt Q9NZ08); experiment: ERAP1 aminopeptidase inhibitors, dose response, biochemical, cherry-pick, set 2, plate reader (AID 743314)
[13] = Luminescence-based cell-based high throughput dose response assay to identify activators of the DAF-12 from the parasite S. stercoralis (ssDAF-12).; type: functional
[14] = target: T1, Oxysterols receptor LXR-beta; experiment: LXR agonists, Gal4 luciferase reporter, dose response, counter-screen for ssDAF-12 agonist project, cell-based, luminescence, HEK293, S. stercoralis campaign (AID 720737); type: functional; details: read-out: IC50 (the source's name)
Paired box protein Pax-8 = Paired box protein Pax-8 (Homo sapiens, UniProt Q06710); experiment: inhibitors of PAX8-driven TPO luciferase reporter, dose response, RMG-I cells, cherry-pick (AID 687027); type: functional, cell-based;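 also: luciferase reporter driven by Pax8 target thyroperoxidase promoter measured by SteadyGlo luminescence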
[15] = A2780 ovarian cancer cell cytotoxicity, dose response, cytotoxicity control, plate reader, dry powder samples (AID 743046); type: functional, cell-based
[16] = NIH:OVCAR-3 ovarian cancer cell cytotoxicity, dose response, PAX8 inhibitor project, plate reader, dry powder samples (AID 743044); type: functional, cell-based
[17] = IGROV1 ovarian cancer cell cytotoxicity, dose response, PAX8 inhibitor project, plate reader, dry powder samples (AID 743043); type: functional, cell-based; details: IGROV-1
[18] = non-specific cell cytotoxicity, dose response, cytotoxicity control for PAX8 inhibitor project, plate reader, dry powder samples (AID 743021); type: functional, cell-based
[19] = cytotoxicity in OVCAR8 ovarian cancer cells, dose response, PAX8 project, cell-based, plate reader, dry powder samples (AID 743197); type: functional; details: OVCAR-8
[20] = ARNT/TACC3 interaction disruptors, potency, confirmation, biochemical, AlphaScreen, cherry-picked samples (AID 651703); type: functional, Homo sapiens;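 also: His-tagged ARNT PAS-B domain paired with GST-TACC3 E629A dimer coactivator fragment; potency of inhibitors that break up the complex and lower AlphaScreen signal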
Caspase-6 = Caspase-6 (Homo sapiens, UniProt P55212); experiment: human caspase-6 inhibitors, dose response, biochemical, VEID-R110 fluorescence, cherry-pick (AID 720632)
[21] = target: T2, Endoribonuclease toxin MazF (Escherichia coli K-12, UniProt P0AE70); experiment: MazF toxin RNase activators, dose response, biochemical, fluorescence, single-stranded RNA substrate, uHTS hits (AID 588481); type: functional
T2 sequence (P0AE70 whole entry): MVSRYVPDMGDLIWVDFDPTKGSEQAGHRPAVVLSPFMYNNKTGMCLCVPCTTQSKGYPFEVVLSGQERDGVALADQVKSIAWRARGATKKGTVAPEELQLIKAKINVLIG

[22] = target: T2, Endoribonuclease toxin MazF; experiment: fluorescent RNA oligo signal without MazF, dose response, counter-screen for MazEF activator project, biochemical, fluorescence, single-stranded RNase substrate (AID 588502); type: functional
[23] = HepG2 cell cytotoxicity, dose response, cytotoxicity control, ATP luminescence, cherry-pick, activator set 2 (AID 1053143); type: functional, cell-based
[24] = target: Luciferin 4-monooxygenase (Photinus pyralis, UniProt P08659); experiment: firefly luciferase enzyme inhibitors, dose response, biochemical, luminescence (AID 1891)
[25] = Luminescence Cell-Based Dose Confirmation HTS to Identify Inhibitors of Platelet Dense Granule Release. [Related pubchem assays: 1663 (Primary HTS), 1678 (Summary of Project)]; type: functional
Mucolipin-3 = target: T3, Mucolipin-3 (Homo sapiens, UniProt Q8TDD5); experiment: Dose response cell-based high-throughput screening assay for agonists of the transient receptor potential channel ML3 (TRPML3). [Related pubchem assays: 1526, 1424, 1448 ]; type: functional
T3 sequence (Q8TDD5 whole entry): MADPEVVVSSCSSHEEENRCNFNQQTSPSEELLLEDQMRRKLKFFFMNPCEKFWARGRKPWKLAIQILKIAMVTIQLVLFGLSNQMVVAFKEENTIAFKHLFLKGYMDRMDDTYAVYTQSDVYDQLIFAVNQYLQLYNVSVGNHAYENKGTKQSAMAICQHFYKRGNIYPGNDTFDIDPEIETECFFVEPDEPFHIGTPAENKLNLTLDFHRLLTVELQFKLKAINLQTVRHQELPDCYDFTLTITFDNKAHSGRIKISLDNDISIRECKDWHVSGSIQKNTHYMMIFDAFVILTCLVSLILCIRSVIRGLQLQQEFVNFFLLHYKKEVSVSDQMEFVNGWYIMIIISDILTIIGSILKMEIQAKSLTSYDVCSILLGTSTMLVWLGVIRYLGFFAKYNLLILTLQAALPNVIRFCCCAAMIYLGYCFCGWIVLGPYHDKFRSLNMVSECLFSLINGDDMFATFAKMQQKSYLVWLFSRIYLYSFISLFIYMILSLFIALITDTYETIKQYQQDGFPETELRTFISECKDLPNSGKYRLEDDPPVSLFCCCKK

Ion channel NompC = Ion channel NompC (Danio rerio, UniProt Q7T1G6); experiment: Fluorescence counterscreen assay for TRPML3 agonists: dose response cell-based high-throughput screening assay to identify agonists of the transient receptor potential channel N1 (TRPN1). [Related pubchem assays: 1526, 1424, 1448 ]; type: functional
[26] = Shn3 3'UTR reporter inhibitors, dose response, cell-based, Clone20 osteoblasts, firefly luciferase, cherry-picked (AID 624132); type: functional;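 also: firefly luciferase luminescence from reporter carrying the Shn3 3'UTR in osteoblasts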
[27] = HepG2 cell cytotoxicity, dose response, cytotoxicity control for Shn3 inhibitor project, CellTiter-Glo, cherry-picked (AID 624134); type: functional, cell-based
[28] = reduction of Shn3 3'UTR firefly luciferase signal, dose response, Schnurri-3 inhibitor project, cell-based, Clone20 osteoblasts, cherry-pick, set 2 (AID 720490); type: functional;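 also: actives lower the luminescence signal as inhibitors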

Chain of Disintegrin and metalloproteinase domain-containing protein 17 (P78536 whole entry, the tested form may be a part): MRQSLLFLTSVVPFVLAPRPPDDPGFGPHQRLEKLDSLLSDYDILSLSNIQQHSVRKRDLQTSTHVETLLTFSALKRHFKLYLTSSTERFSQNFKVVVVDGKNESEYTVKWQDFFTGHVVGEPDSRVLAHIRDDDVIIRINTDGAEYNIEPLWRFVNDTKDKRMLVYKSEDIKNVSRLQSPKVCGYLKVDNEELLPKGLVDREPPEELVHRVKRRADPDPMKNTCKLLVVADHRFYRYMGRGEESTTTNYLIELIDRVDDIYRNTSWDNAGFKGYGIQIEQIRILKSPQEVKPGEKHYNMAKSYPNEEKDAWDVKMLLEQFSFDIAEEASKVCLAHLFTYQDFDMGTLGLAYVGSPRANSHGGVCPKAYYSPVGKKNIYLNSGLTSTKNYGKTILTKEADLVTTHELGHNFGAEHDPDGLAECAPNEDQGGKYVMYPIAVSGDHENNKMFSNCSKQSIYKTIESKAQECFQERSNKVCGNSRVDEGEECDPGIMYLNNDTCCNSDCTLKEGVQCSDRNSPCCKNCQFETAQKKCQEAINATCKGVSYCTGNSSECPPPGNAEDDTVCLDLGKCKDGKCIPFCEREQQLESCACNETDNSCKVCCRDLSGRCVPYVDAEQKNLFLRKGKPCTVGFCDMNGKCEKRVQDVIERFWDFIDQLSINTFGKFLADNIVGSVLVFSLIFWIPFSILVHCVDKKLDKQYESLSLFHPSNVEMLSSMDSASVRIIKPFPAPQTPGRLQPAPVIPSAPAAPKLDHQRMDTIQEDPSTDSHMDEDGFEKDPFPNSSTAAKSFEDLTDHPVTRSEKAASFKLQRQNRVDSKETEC
Chain of Paired box protein Pax-8 (Q06710 whole entry): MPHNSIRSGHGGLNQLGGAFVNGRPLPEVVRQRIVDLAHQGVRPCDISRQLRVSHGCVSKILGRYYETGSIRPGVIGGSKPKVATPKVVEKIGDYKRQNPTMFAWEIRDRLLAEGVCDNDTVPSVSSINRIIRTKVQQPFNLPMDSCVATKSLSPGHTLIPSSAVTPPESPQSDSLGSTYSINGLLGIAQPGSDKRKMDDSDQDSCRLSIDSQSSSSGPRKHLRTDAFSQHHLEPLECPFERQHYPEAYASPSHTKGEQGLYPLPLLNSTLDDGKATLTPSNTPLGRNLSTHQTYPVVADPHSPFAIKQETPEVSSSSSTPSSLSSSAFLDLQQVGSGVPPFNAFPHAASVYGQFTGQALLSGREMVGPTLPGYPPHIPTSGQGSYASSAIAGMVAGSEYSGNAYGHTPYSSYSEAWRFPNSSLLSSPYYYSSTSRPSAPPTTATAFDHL
Chain of Endoplasmic reticulum aminopeptidase 1 (Q9NZ08 whole entry): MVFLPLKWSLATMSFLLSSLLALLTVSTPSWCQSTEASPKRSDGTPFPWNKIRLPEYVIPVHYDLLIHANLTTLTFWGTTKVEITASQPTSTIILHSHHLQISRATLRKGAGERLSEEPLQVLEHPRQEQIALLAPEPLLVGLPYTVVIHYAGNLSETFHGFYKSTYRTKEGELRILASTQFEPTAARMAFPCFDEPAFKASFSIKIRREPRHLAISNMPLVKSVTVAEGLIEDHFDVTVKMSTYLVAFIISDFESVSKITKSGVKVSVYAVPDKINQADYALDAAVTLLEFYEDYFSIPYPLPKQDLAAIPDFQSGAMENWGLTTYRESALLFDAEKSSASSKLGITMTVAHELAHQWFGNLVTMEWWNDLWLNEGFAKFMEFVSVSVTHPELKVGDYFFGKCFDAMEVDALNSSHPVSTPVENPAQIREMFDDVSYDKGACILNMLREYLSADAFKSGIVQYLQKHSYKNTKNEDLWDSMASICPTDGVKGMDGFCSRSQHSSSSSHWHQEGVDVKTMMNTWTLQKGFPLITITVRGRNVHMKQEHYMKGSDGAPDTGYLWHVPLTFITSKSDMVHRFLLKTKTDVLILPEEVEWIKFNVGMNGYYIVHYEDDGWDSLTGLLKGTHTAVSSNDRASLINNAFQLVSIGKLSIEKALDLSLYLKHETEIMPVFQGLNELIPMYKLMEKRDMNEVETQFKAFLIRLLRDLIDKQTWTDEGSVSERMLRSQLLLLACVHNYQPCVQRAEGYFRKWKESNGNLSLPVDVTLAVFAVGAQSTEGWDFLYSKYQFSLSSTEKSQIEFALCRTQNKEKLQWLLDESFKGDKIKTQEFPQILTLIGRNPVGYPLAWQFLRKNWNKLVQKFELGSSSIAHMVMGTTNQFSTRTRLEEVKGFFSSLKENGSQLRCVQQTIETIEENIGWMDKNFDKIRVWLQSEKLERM
Chain of Caspase-6 (P55212 24-179 limits assumed): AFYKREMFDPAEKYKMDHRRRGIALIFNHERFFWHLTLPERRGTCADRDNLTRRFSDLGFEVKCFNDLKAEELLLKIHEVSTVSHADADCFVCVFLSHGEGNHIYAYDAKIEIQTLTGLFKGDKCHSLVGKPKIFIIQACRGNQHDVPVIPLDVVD
Chain of Caspase-6 (P55212 194-293 limits assumed): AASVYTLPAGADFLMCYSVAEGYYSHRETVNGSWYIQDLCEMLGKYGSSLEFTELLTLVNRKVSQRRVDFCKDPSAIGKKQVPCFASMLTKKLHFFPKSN
Chain of Ion channel NompC (Q7T1G6 whole entry): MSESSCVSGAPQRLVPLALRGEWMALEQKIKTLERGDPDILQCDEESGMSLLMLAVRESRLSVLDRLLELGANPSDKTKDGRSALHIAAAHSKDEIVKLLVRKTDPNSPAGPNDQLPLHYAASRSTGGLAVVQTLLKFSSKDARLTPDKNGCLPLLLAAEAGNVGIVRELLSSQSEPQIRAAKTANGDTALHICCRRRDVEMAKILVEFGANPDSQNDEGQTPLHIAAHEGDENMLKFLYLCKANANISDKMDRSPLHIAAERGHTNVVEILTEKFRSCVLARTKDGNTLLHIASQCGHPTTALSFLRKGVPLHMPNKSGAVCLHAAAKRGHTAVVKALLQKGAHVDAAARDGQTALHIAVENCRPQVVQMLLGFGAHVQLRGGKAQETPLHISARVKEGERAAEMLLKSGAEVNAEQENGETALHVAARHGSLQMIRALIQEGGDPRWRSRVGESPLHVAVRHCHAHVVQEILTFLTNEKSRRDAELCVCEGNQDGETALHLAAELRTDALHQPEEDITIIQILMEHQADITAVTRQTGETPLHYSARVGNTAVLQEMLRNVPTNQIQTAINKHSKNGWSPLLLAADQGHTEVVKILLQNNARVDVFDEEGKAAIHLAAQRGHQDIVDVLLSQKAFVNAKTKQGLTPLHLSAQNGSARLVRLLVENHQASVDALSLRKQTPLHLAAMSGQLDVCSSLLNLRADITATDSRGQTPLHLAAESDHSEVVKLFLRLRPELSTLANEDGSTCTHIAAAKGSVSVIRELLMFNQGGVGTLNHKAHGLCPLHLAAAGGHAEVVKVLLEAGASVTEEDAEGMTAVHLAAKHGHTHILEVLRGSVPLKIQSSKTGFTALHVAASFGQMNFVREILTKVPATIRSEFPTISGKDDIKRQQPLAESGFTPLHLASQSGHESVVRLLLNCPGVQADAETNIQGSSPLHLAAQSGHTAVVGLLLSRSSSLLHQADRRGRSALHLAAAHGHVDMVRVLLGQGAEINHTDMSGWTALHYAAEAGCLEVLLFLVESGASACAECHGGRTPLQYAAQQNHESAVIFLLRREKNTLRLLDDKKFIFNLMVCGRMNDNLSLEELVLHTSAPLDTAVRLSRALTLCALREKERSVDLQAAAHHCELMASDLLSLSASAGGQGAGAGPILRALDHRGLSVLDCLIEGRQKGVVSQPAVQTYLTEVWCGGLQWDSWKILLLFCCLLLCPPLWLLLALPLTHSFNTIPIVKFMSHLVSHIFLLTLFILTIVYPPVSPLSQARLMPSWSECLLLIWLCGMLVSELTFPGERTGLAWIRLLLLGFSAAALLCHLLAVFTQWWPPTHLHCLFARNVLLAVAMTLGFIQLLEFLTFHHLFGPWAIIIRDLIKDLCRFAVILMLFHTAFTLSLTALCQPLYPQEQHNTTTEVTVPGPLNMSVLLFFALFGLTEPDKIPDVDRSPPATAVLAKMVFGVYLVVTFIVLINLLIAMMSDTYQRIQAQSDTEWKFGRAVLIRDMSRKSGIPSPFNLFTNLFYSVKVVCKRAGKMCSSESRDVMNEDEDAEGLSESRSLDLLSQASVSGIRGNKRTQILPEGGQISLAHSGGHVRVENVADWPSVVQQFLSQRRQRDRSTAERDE
Chain of Luciferin 4-monooxygenase (P08659 whole entry): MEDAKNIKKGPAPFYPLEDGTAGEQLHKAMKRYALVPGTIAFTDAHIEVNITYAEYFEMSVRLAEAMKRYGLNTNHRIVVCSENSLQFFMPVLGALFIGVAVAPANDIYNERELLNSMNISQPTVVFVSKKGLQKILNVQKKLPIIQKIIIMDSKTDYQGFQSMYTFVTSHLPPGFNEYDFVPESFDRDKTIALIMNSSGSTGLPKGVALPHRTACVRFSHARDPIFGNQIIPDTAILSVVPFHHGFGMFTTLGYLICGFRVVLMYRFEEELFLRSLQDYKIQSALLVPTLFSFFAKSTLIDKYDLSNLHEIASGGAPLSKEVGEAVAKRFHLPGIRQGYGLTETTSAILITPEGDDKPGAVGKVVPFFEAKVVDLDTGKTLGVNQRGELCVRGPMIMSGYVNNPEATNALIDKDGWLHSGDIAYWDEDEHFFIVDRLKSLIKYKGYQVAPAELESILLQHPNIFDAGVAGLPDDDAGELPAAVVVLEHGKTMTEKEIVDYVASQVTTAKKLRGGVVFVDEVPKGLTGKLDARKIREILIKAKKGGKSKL

Cc1ccccc1-c1nnn(Cc2ccc(F)cc2Cl)n1
IC50 [1]: > 69.5 µM (inactive)
IC50 [2]: > 69.5 µM (inactive)

Cc1ccc(Nc2nc(-c3ccccc3)cs2)nc1
AC50 [3]: 37.4 µM (active)
AC50 [4]: > 52 µM (inactive)
AC50 [5]: 8.03 µM (active)
AC50 [6]: 13.3 µM (active)
EC50 [7]: > 67.5 µM (inactive)
EC50 (cells [8]): > 67.5 µM (inactive)

OCc1ccc(N=Nc2ccccc2)cc1
EC50 (cells [9]): > 350 µM (not active)
EC50 (cells [10]): 8.65 µM (active)
EC50 [11]: > 67.5 µM (inactive)

O=c1ccc2cc(OC3O[C@H](CO)[C@@H](O)[C@H](O)[C@H]3O)c(O)cc2o1 (some centres undefined)
AC50 [12]: 2.24 µM (active)

Oc1ccccc1-c1cc(-c2ccc(Cl)cc2)[nH]n1
IC50 [13]: > 67.5 µM (inactive)
EC50 [14]: > 67.5 µM (inactive)
EC50 [11]: > 67.5 µM (inactive)

O=C(C1CCC1)N1CC(=O)N2[C@H](CO)[C@H](c3ccc(C#CCc4ccccc4)cc3)[C@H]2C1
AC50 (Paired box protein Pax-8): 24.3 µM (active)
AC50 [15]: 0.324 µM (active)
AC50 [16]: 11.4 µM (active)
AC50 [17]: 42.6 µM (active)
AC50 [18]: 48 µM (active)
AC50 [19]: 20.4 µM (active)

CCOC(=O)C1CCN(C(=O)COC(=O)c2ccc([N+](=O)[O-])o2)CC1
AC50 [20]: 88.2 µM (active)
AC50 (Caspase-6): 18.5 µM (active)

COc1ccc(CN(C)C[C@@H]2OCCCC[C@H](C)Oc3ccc(NC(=O)Nc4ccc(C(F)(F)F)cc4)cc3C(=O)N([C@@H](C)CO)C[C@H]2C)cc1
AC50 (Paired box protein Pax-8): 14.6 µM (active)
AC50 [15]: 21.9 µM (active)
AC50 [16]: 2.91 µM (active)
AC50 [18]: 63.1 µM (active)
AC50 [19]: 25.2 µM (active)

Nc1c(C(=O)c2ccccc2)sc2nsc(SCCN3CCOCC3)c12
EC50 [21]: > 99 µM (inactive)
EC50 [22]: > 99 µM (inactive)
AC50 [23]: 51.6 µM (active)

Oc1c(N=Nc2ccccc2)sc2ccccc12
EC50 [24]: 1.26 µM (active)
EC50 [25]: 15 µM (active)
IC50 [13]: > 67.5 µM (inactive)
EC50 [14]: > 67.5 µM (inactive)
EC50 [7]: > 67.5 µM (inactive)
EC50 (cells [8]): > 67.5 µM (inactive)

COc1ccc(-c2n[nH]c(=S)n2-c2ccc(Br)cc2)cc1OC
IC50 [1]: 41.6 µM (inactive)

COc1ccc(NS(=O)(=O)c2ccc(OC)c(N(C)S(=O)(=O)c3ccc(Cl)cc3)c2)cc1
EC50 (Mucolipin-3): > 9.99 µM (not active)
EC50 (Ion channel NompC): > 29.9 µM (not active)
AC50 [26]: 2.92 µM (active)
AC50 [27]: 38.7 µM (active)
AC50 [28]: 3.54 µM (active)

COc1ccc(-c2nnc(S)n2-c2ccc(Br)cc2)cc1OC
IC50 [2]: > 69.5 µM (inactive)
